# Assay results: paper PMC12415477, “Electrostatic interactions influence diazabicyclooctane inhibitor potency against OXA-48-like β-lactamases” (RSC Medicinal Chemistry, 2025)
# Legend:
# [1] = molecular target: OXA-405 β-lactamase (mature, residues 23-261); assay: crystal structure; X-ray structures of the purified enzymes, uncomplexed and soaked with nacubactam or avibactam; crystals grown in 0.1 M HEPES pH 7.5 or 0.1 M Tris pH 8.5-9.0 with PEG 400 or PEG 550; homodimer seen in the crystal, chloride ion at the dimer interface
# [2] = system: O=C(Cc1cccs1)N[C@@H]1C(=O)N2C(C(=O)O)=C(/C=C/c3ccc([N+](=O)[O-])cc3[N+](=O)[O-])CS[C@H]12; assay: purified protein, by the assay type; settings: other: 1 nM enzyme, pH 7.6
# OXA-48 [3] = molecular target: T1, OXA-48 (Klebsiella pneumoniae, UniProt Q6XEC0); settings: cited from earlier work; for Binding affinities and complex residence times against OXA-48: in words
# T1 construct: pOPINF-OXA-48^(23-265) (previously cloned as described in Cahill et al); hexahistidine tag with 3C protease site (pOPINF) (N, cleaved yes); made in house; host or cells: E. coli BL21-DE3
# OXA-405 [4] = molecular target: T2, OXA-405 (Klebsiella pneumoniae, UniProt Q6XEC0, DEL213-216); settings: 1 nM enzyme, pH 7.6
# Protocol: (§1) All enzyme kinetics experiments were performed in 50 mM HEPES pH 7.6, 50 mM NaPO4 buffer supplemented with 50 mM NaHCO3 and 50 μg mL^−1 bovine serum albumin (BSA) in 96-well half area plates (Greiner, 675801).
# OXA-163 [5] = molecular target: T3, OXA-163 (Klebsiella pneumoniae, UniProt Q6XEC0, DEL214-217/S212D); settings: 1 nM enzyme, pH 7.6
# Protocol: as §1
# OXA-163 [6] = molecular target: T3, OXA-163; assay: IC50 determination, inhibition of nitrocefin hydrolysis by OXA-163; type: biochemical; set-up: genes encoding the mature OXA-163^23-261 (GenBank HQ700343); hexahistidine tag with 3C protease site (pOPINF) (N, cleaved yes); made in house; host or cells: E. coli BL21-DE3
# OXA-163 [7] = assay: as above; type: biochemical; settings: IC50 OXA-48 / IC50 OXA-163
# OXA-405 [8] = molecular target: T2, OXA-405; assay: IC50 determination, inhibition of nitrocefin hydrolysis by OXA-405; type: biochemical; set-up: genes encoding the mature OXA-163^23-261 (GenBank HQ700343) and OXA-405^23-261 (GenBank KM589641) open reading frames; hexahistidine tag with 3C protease site (pOPINF) (N, cleaved yes); made in house; host or cells: E. coli BL21-DE3
# OXA-405 [9] = assay: as above; type: biochemical; settings: IC50 OXA-48 / IC50 OXA-405
# OXA-48 [10] = molecular target: T1, OXA-48; assay: IC50 determination, inhibition of nitrocefin hydrolysis by OXA-48; type: biochemical; settings: for Fold difference in IC50, nacubactam versus avibactam, OXA-48: ratio nacubactam IC50 / avibactam IC50
# crystal structure = molecular target: the molecule itself; assay: crystal structure
# [11] = ratio nacubactam IC50 / avibactam IC50
molecule,measurement,setting,value
"OXA-405 β-lactamase (mature, residues 23-261) (enzyme)",stoichiometry N,[1],2
OXA-48 (Klebsiella pneumoniae),Km,[2],114.4 µM
same,kcat,[2],515.0 s⁻¹
same,kcat/Km,[2],5.2e+06 M⁻¹ s⁻¹
O=C(NNC(=O)[C@@H]1CC[C@@H]2CN1C(=O)N2OS(=O)(=O)O)C1CNC1 [FPI-1602],Binding affinities and complex residence times against OXA-48,OXA-48 [3],lower binding affinities and complex residence times
O=C(Cc1cccs1)N[C@@H]1C(=O)N2C(C(=O)O)=C(/C=C/c3ccc([N+](=O)[O-])cc3[N+](=O)[O-])CS[C@H]12 [nitrocefin],"kcat, nitrocefin hydrolysis by OXA-405",OXA-405 [4],113.9 s⁻¹
same,Km,"OXA-405 [4]; read-out: KM, nitrocefin hydrolysis by OXA-405",33.9 µM
same,"kcat, nitrocefin hydrolysis by OXA-163",OXA-163 [5],64.5 s⁻¹
same,Km,"OXA-163 [5]; read-out: KM, nitrocefin hydrolysis by OXA-163",13.4 µM
O=C(NO[C@@H]1CCNC1)[C@@H]1CC[C@@H]2CN1C(=O)N2OS(=O)(=O)O [FPI-1465],Binding affinities and complex residence times against OXA-48,OXA-48 [3],lower binding affinities and complex residence times
NCCONC(=O)[C@@H]1CC[C@@H]2CN1C(=O)N2OS(=O)(=O)O [nacubactam],"Decrease in enzyme : inhibitor residence time (t1/2) compared to avibactam, OXA-48",OXA-48 [3],approximately 37 fold
same,"Increase in dissociation rate (koff) compared to avibactam, OXA-48",OXA-48 [3],~36 fold
same,IC50,OXA-163 [6],1.23 µM
same,"Fold difference in IC50, nacubactam versus avibactam, OXA-163",OXA-163 [6]; [11],6.2 fold
same,Increase in inhibition potency towards OXA-163 compared to OXA-48,OXA-163 [7],16.2 fold
same,IC50,OXA-405 [8],10.6 µM
same,"Fold difference in IC50, nacubactam versus avibactam, OXA-405",OXA-405 [8]; [11],10.7 fold
same,Increase in inhibition potency towards OXA-405 compared to OXA-48,OXA-405 [9],1.9 fold
same,IC50,"OXA-48 [10]; 1 nM enzyme pre-incubated 10 min with inhibitor, 75 μM nitrocefin, pH 7.6, read-out: IC50 against OXA-48",19.9 µM
same,"Fold difference in IC50, nacubactam versus avibactam, OXA-48",OXA-48 [10],77 fold
same,"Fold difference in IC50, nacubactam versus avibactam, OXA-48",OXA-48 [10]; listed as Nacubactam,76.6 fold
"OXA-48 β-lactamase (residues 23-265) (enzyme, also called OXA-48^(23-265); OXA-48 carbapenemase; source: E. coli BL21-DE3, purified (Ni-NTA, 3C protease cleavage, second Ni-NTA, Superdex 75 SEC)) KEWQENKSWNAHFTEHKSQGVVVLWNENKQQGFTNNLKRANQAFLPASTFKIPNSLIALDLGVVKDEHQVFKWDGQTRDIATWNRDHNLITAMKYSVVPVYQEFARQIGEARMSKMLHAFDYGNEDISGNVDSFWLDGGIRISATEQISFLRKLYHNKLHVSERSQRIVKQAMLTEANGDYIIRAKTGYSTRIEPKIGWWVGWVELDDNVWFFAMNMDMPTSDGLGLRQAITKEVLKQEKIIP",stoichiometry N,crystal structure,2
"OXA-163 β-lactamase (mature, residues 23-261) (enzyme, source: E. coli BL21-DE3, purified (Ni-NTA, 3C protease cleavage, second Ni-NTA, Superdex 75 SEC)) KEWQENKSWNAHFTEHKSQGVVVLWNENKQQGFTNNLKRANQAFLPASTFKIPNSLIALDLGVVKDEHQVFKWDGQTRDIATWNRDHNLITAMKYSVVPVYQEFARQIGEARMSKMLHAFDYGNEDISGNVDSFWLDGGIRISATEQISFLRKLYHNKLHVSERSQRIVKQAMLTEANGDYIIRAKTGYDTKIGWWVGWVELDDNVWFFAMNMDMPTSDGLGLRQAITKEVLKQEKIIP",stoichiometry N,crystal structure,2
